Each block holds one compound with its values, some of them ahead of it. Active and inactive are the calls of the source. No cut-off for these calls is given here.
Tests used:
[1] = system: MCF7; experiment: Growth inhibition of human MCF7 cells at 10 uM after 48 hrs; type: functional
[2] = system: T47D; experiment: Antiproliferative activity against human T47D cells after 5 days by MTT assay; type: functional, cell-based; settings: 120 h
[3] = system: MCF7; experiment: Induction of apoptosis in human MCF7 cells assessed as apoptotic bubbling at 1 to 10 uM after 48 hrs by Hoechst-staining method in presence of fetal calf serum; type: functional, cell-based
[4] = system: MDA-MB-231; experiment: Induction of apoptosis in human MDA-MB-231 cells after 48 hrs by Hoechst-staining method in absence of fetal calf serum; type: functional, cell-based
[5] = system: MDA-MB-231; experiment: Induction of apoptosis in human MDA-MB-231 cells at 10 uM after 48 hrs by Hoechst-staining method in presence of fetal calf serum; type: functional
[6] = system: MCF7; experiment: Induction of cell cycle arrest in human MCF7 cells assessed as subG0 phase cells at 5 uM after 48 hrs by propidium iodide-staining method in presence of fetal calf serum relative to control; type: functional
[7] = system: MDA-MB-231; experiment: Growth inhibition of human MDA-MB-231 cells after 48 hrs in presence of fetal calf serum; type: functional, cell-based; settings: MDA-MB-231, 48 h
[8] = system: MCF7; experiment: Induction of apoptosis in human MCF7 cells after 48 hrs by Hoechst-staining method in absence of fetal calf serum; type: functional, cell-based
[9] = system: MDA-MB-231; experiment: Induction of apoptosis in human MDA-MB-231 cells after 48 hrs by Hoechst-staining method in presence of fetal calf serum; type: functional, cell-based
[10] = system: MCF7; experiment: Induction of apoptosis in human MCF7 cells assessed as pyknosis at 1 to 10 uM after 48 hrs by Hoechst-staining method in absence of fetal calf serum; type: functional, cell-based
[11] = system: MCF7; experiment: Induction of cell cycle arrest in human MCF7 cells assessed as S phase cells at 5 uM after 48 hrs by flow cytometric analysis (reference value: 46.6%); type: functional
[12] = system: MCF7; experiment: Induction of apoptosis in human MCF7 cells assessed as pyknosis at 1 to 10 uM after 48 hrs by Hoechst-staining method in presence of fetal calf serum; type: functional, cell-based
[13] = system: MCF7; experiment: Induction of apoptosis in human MCF7 cells after 48 hrs by Hoechst-staining method in presence of fetal calf serum; type: functional, cell-based
[14] = system: MDA-MB-231; experiment: Induction of cell cycle arrest in human MDA-MB-231 cells assessed as decrease in G2/M phase cells at 5 uM after 48 hrs by flow cytometric analysis relative to control; type: functional, cell-based
[15] = system: MDA-MB-231; experiment: Induction of apoptosis in human MDA-MB-231 cells assessed as apoptotic bubbling at 1 to 10 uM after 48 hrs by Hoechst-staining method in absence of fetal calf serum; type: functional, cell-based
[16] = system: MDA-MB-231; experiment: Induction of cell cycle arrest in human MDA-MB-231 cells assessed as S phase cells at 5 uM after 48 hrs by flow cytometric analysis (reference value: 40.4%); type: functional
[17] = system: MDA-MB-231; experiment: Induction of apoptosis in human MDA-MB-231 cells assessed as pyknosis at 1 to 10 uM after 48 hrs by Hoechst-staining method in presence of fetal calf serum; type: functional, cell-based
[18] = system: MCF7; experiment: Induction of cell cycle arrest in human MCF7 cells assessed as G0/G1 phase cells at 5 uM after 48 hrs by flow cytometric analysis (reference value: 35.6%); type: functional
[19] = system: MDA-MB-231; experiment: Induction of cell cycle arrest in human MDA-MB-231 cells assessed as subG0 phase cells at 5 uM after 48 hrs by propidium iodide-staining method in presence of fetal calf serum relative to control; type: functional
[20] = system: MCF7; experiment: Growth inhibition of human MCF7 cells after 48 hrs in absence of fetal calf serum; type: functional, cell-based; settings: MCF7, 48 h
[21] = system: MCF7; experiment: Induction of apoptosis in human MCF7 cells at 10 uM after 48 hrs by Hoechst-staining method in presence of fetal calf serum; type: functional
[22] = system: MCF7; experiment: Induction of cell cycle arrest in human MCF7 cells assessed as subG0 phase cells at 5 uM after 48 hrs by propidium iodide-staining method in absence of fetal calf serum relative to control; type: functional
[23] = system: MDA-MB-231; experiment: Induction of cell cycle arrest in human MDA-MB-231 cells assessed as decrease in G0/G1 phase cells at 5 uM after 48 hrs by flow cytometric analysis relative to control; type: functional, cell-based
[24] = system: MCF7; experiment: Induction of apoptosis in human MCF7 cells assessed as apoptotic bubbling at 1 to 10 uM after 48 hrs by Hoechst-staining method in absence of fetal calf serum; type: functional, cell-based
[25] = system: MDA-MB-231; experiment: Induction of apoptosis in human MDA-MB-231 cells assessed as apoptotic bubbling at 1 to 10 uM after 48 hrs by Hoechst-staining method in presence of fetal calf serum; type: functional, cell-based
[26] = system: MDA-MB-231; experiment: Induction of apoptosis in human MDA-MB-231 cells assessed as pyknosis at 1 to 10 uM after 48 hrs by Hoechst-staining method in absence of fetal calf serum; type: functional, cell-based
[27] = system: MCF7; experiment: Induction of cell cycle arrest in human MCF7 cells assessed as S/G2 phase cells at 5 uM after 48 hrs by flow cytometric analysis (reference value: 17.8%); type: functional
[28] = system: MDA-MB-231; experiment: Growth inhibition of human MDA-MB-231 cells after 48 hrs in absence of fetal calf serum; type: functional, cell-based; settings: MDA-MB-231, 48 h
[29] = system: MDA-MB-231; experiment: Induction of cell cycle arrest in human MDA-MB-231 cells assessed as subG0 phase cells at 5 uM after 48 hrs by propidium iodide-staining method in absence of fetal calf serum relative to control; type: functional
[30] = system: MCF7; experiment: Growth inhibition of human MCF7 cells after 48 hrs in presence of fetal calf serum; type: functional, cell-based; settings: MCF7, 48 h
[31] = Drug degradation in culture medium assessed as dehydration; type: physicochemical
[32] = Drug degradation in culture medium assessed as decarboxylation; type: physicochemical

SMILES: COC(=O)C1=Cc2cc(OC)c(O)cc2[C@@H](c2ccc(O)c(OC)c2)[C@@H]1C(=O)OC
growth inhibition (GI) [1]: inactive

IC50 [2]: 0.002 µM
SMILES: O=C(O)/C=C/c1ccc(O)c(O)c1 [CAFFEIC ACID]

IC50 [7]: 5 µM
IC50 [20]: 1 µM
IC50 [28]: 5 µM
IC50 [30]: 1 µM
SMILES: COC(=O)C1=Cc2cc(O)c(O)cc2[C@@H](c2ccc(O)c(O)c2)[C@@H]1C(=O)OC
Activity [3]: Active
Activity [4]: Dose-dependent effect
Activity [5]: 25%
Activity [6]: 20%
inhibition of growth at 10 µM ([1]; MCF7, 48 h, read-out: GI): 82%
Activity [8]: Dose-dependent effect
Activity [9]: Dose-dependent effect
Activity [10]: Active
Activity [11]: 34.7%
Activity [12]: Active
Activity [13]: Dose-dependent effect
Activity [14]: Active
Activity [15]: Active
Activity [16]: 56.1%
Activity [17]: Active
Activity [18]: 29.4%
Activity [19]: 20%
Activity [21]: 25%
Activity [22]: 20%
Activity [23]: Active
Activity [24]: Active
Activity [25]: Active
Activity [26]: Active
Activity [27]: 17%
Activity [29]: 20%

SMILES: CCOC(=O)C1=Cc2cc(O)c(O)cc2[C@@H](c2ccc(O)cc2)[C@@H]1C(=O)O (relative stereo)
growth inhibition (GI) [1]: Active

Stability [31]: Unstable
SMILES: COC(=O)C1C(O)c2cc(OC)c(O)c(OC)c2[C@@H](c2cc(OC)c(O)c(OC)c2)[C@@H]1C(=O)OC (stereo partly drawn)
growth inhibition (GI) [1]: Active

Stability [32]: Unstable
SMILES: O=C(O)C1=Cc2cc(O)c(O)cc2[C@@H](c2ccc(O)cc2)[C@@H]1C(=O)O (relative stereo)
growth inhibition (GI) [1]: Active

SMILES: COC(=O)C1=Cc2cc(OC)c(O)c(C)c2[C@@H](c2cc(C)c(O)c(OC)c2)[C@@H]1C(=O)OC
growth inhibition (GI) [1]: inactive

SMILES: CCOC(=O)C1=Cc2cc(O)c(O)cc2[C@@H](c2ccc(O)cc2)[C@@H]1C(=O)OCC (relative stereo)
growth inhibition (GI) [1]: Active

— ChEMBL document CHEMBL2311359, “Antiproliferative and apoptotic effects of the oxidative dimerization product of methyl caffeate on human breast cancer cells” (Bioorg Med Chem Lett, 2013)
